Source: US10730849B2, “Benzo[b]thiophene compounds as STING agonists” (MERCK SHARP & DOHME CORP., priority 2016, dated 2020)

Key:
[1] = molecular target: full-length WT STING (Homo sapiens (Human), UniProt Q86WV6, H232R); assay: 3H-cGAMP filtration binding assay (WT STING); settings: WT STING, compound at 20 uM
Description: (§1) The ability of compounds to bind STING is quantified by their ability to compete with tritiated cGAMP ligand for human STING receptor membrane using a radioactive filter-binding assay. The binding assay employs STING receptor obtained from Trichoplusia ni cell membranes (T. ni; Expression Systems, cat #94-002F, www.expressionsystems.com) overexpressing full-length WT STING and tritiated cGAMP ligand.
The basic WT STING filtration assay protocol is as follows:
The filter plates were then dried at 55° C. for 30 min using a pressurized VWR oven before 30 uL of ULTIMA GOLD F scintillate was added to each well. Tritium levels for each reaction well were then measured using a PerkinElmer TopCount plate reader.
(§2) After normalization to controls, the percent activity for each compound concentration was calculated by measuring the amount of remaining radioactivity. The plot of percent activity versus the log of compound concentration was fit with a 4-parameter dose response equation to calculate EC50 values.

[2] = molecular target: full-length HAQ STING (Homo sapiens (Human), UniProt Q86WV6, G230A/H232R/R293Q/R71H); assay: 3H-cGAMP filtration binding assay (HAQ STING); settings: competition with tritiated cGAMP, HAQ STING membrane
Description: The ability of compounds to bind STING is quantified by the ability to compete with tritiated cGAMP ligand for human STING receptor membrane using a radioactive filter-binding assay. The binding assay employs STING receptor obtained from Hi-Five cell membranes overexpressing full-length HAQ STING prepared in-house and tritiated cGAMP ligand also purified in-house.
as §1, with “www.exressionsystems.com)” for “www.expressionsystems.com)”, “HAQ” for “WT”
The basic HAQ STING filtration assay protocol is as follows:
Compound and membrane then preincubated for 60 min at RT to allow compound binding to equilibrate. Following equilibration, 8 nM of [^3H]c-GAMP ligand was prepared by diluting into assay buffer, and 50 uL of this working stock was then manually added to each well of the assay plate. […] The filter plates were then dried at 55° C. for 30 min using a pressurized oven before 30 uL of ULTIMA GOLD F scintillate was added to each well. Tritium levels for each reaction well were then measured using a PerkinElmer TopCount plate reader.
as §2

[3] = test system: THP1 cells; assay: IFN-β secretion in THP1 cell culture (5 h); type: cell-based, human; settings: relative to 30 uM cGAMP
Procedure: The ability of compounds to stimulate the secretion of interferon-beta from THP1 cells was measured using a human IFN-3 AlphaLISA kit (Perkin Elmer, Cat. No. AL265F). The basic protocol is as follows:
The cell viability and count was ascertained using a Beckman Coulter V-Cell XR cell counter. The cells suspension was centrifuged at 200×g for 5 min at RT. Cells were resuspended to a density of 0.8×10^6/mL in 37° C. assay medium. Subsequent liquid transfers were performed using either a Matrix electronic multichannel pipette or an Agilent Bravo Automated Liquid Handling Platform.
The assay was started by dispensing 40 μL of the previously prepared cell suspension into the wells of the plate containing compounds. After 5 h incubation at 37° C., 5% CO2 in a humidified atmosphere, the plate of cells and compounds was centrifuged at 200×g for 5 min at RT. […] To these supernatant-containing wells was added 10 μL of 5× Anti-Analyte Acceptor beads ([…] of AlphaLISA HiBlock Buffer) and incubated for 30 min at RT while shaking on an orbital plate shaker. To each well was added 10 μL of 5× Biotinylated Antibody Anti-analyte (5 nM in AlphaLISA HiBlock Buffer) and incubated on an orbital plate shaker for 60 min at RT or overnight at 4° C. To each well was added 25 μL of 2× SA-Donor beads ([…] in AlphaLISA HiBlock Buffer) and incubated for 30-45 min at RT in the dark while shaking on an orbital plate shaker. The plate was then read on a Perkin Elmer Envision (λex=680 nm, […]). The percent effect of the AlphaLISA signal at each compound concentration was calculated based on 30 uM cGAMP positive controls and 0.3% DMSO negative controls. The plot of percent effect versus the log of compound concentration was fit with a 4-parameter concentration response equation to calculate EC50 values.
Compounds of the disclosure were evaluated for IFN-3 secretion in THP1 cell culture as described above.

Chain of full-length HAQ STING (Q86WV6 other isoform, or with tags, fused parts or gaps, stated change not applied): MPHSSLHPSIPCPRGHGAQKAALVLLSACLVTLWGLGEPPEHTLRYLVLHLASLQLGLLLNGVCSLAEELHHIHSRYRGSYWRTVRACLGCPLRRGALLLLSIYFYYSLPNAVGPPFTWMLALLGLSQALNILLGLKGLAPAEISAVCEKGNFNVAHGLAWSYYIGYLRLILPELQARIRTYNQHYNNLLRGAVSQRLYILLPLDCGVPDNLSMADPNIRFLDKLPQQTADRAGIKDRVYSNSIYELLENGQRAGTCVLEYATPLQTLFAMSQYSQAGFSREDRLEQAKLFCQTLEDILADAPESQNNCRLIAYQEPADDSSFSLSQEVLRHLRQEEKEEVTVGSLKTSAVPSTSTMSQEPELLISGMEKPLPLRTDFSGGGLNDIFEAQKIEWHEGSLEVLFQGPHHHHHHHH
Chain of full-length WT STING (Q86WV6 other isoform, or with tags, fused parts or gaps H232R (already in the parent)): as the sequence (Q86WV6 other isoform, or with tags, fused parts or gaps, stated change not applied) above, with H71R, A230G, Q293R counted along it

For “(S)-4-(5,6-dimethylbenzo [b]thiophen-2-y1)- 2-methyl-4- oxobutanoic acid [Example 31]”, the “% Inh @ 20 uM” value [1] was 10% Inh @ 20 μM, the EC50 [2] was 5.94 µM and the “% Effect at 30 μM relative to 2’3’-cGAMP” value [3] was 24%.
